In PubChem BioAssay (NCI):
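Growth conditions: 96-well plates. Treatment: test compound, 48 hours, 5 concentrations. Analysis: linear interpolation between bracketing concentrations; unreached endpoints set to highest concentration. The concentration for full growth arrest is given as TGI.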

Assays:
Assay in all cases: inhibition of tumour cell growth, NCI panel, 48 h
786-0 renal = test system: 786-0 renal
A498 renal = test system: A498 renal
A549 NSCLC = test system: A549 NSCLC
ACHN renal = test system: ACHN renal
BT-549 breast = test system: BT-549 breast
CAKI-1 renal = test system: CAKI-1 renal
CCRF-CEM leukemia = test system: CCRF-CEM leukemia
COLO 205 colon = test system: COLO 205 colon
DU-145 prostate = test system: DU-145 prostate
EKVX NSCLC = test system: EKVX NSCLC
HCC-2998 colon = test system: HCC-2998 colon
HCT-116 colon = test system: HCT-116 colon
HCT-15 colon = test system: HCT-15 colon
HL-60(TB) leukemia = test system: HL-60(TB) leukemia
HOP-62 NSCLC = test system: HOP-62 NSCLC
HOP-92 NSCLC = test system: HOP-92 NSCLC
HS 578T breast = test system: HS 578T breast
K-562 leukemia = test system: K-562 leukemia
KM12 colon = test system: KM12 colon
LOX IMVI melanoma = test system: LOX IMVI melanoma
M14 melanoma = test system: M14 melanoma
MALME-3M melanoma = test system: MALME-3M melanoma
MCF7 breast = test system: MCF7 breast
MDA-MB-231 breast = test system: MDA-MB-231 breast
MDA-MB-435 = test system: MDA-MB-435
MDA-N = test system: MDA-N
MOLT-4 leukemia = test system: MOLT-4 leukemia
NCI-H226 lung = test system: NCI-H226 lung
NCI-H23 lung = test system: NCI-H23 lung
NCI-H460 lung = test system: NCI-H460 lung
NCI-H522 lung = test system: NCI-H522 lung
NCI/ADR-RES ovarian = test system: NCI/ADR-RES ovarian
OVCAR-3 ovarian = test system: OVCAR-3 ovarian
OVCAR-4 ovarian = test system: OVCAR-4 ovarian
OVCAR-5 ovarian = test system: OVCAR-5 ovarian
OVCAR-8 ovarian = test system: OVCAR-8 ovarian
RPMI-8226 leukemia = test system: RPMI-8226 leukemia
RXF 393 renal = test system: RXF 393 renal
SF-268 CNS = test system: SF-268 CNS
SF-295 CNS = test system: SF-295 CNS
SF-539 CNS = test system: SF-539 CNS
SK-MEL-2 melanoma = test system: SK-MEL-2 melanoma
SK-MEL-28 melanoma = test system: SK-MEL-28 melanoma
SK-MEL-5 melanoma = test system: SK-MEL-5 melanoma
SK-OV-3 ovarian = test system: SK-OV-3 ovarian
SN12C renal = test system: SN12C renal
SNB-19 CNS = test system: SNB-19 CNS
SR leukemia = test system: SR leukemia
SW-620 colon = test system: SW-620 colon
T-47D breast = test system: T-47D breast
TK-10 renal = test system: TK-10 renal
U251 CNS = test system: U251 CNS
UACC-257 melanoma = test system: UACC-257 melanoma
UACC-62 melanoma = test system: UACC-62 melanoma
UO-31 renal = test system: UO-31 renal

With `CC(=O)Nc1ccc(N2C(=O)/C(=C\c3cccc(Oc4ccccc4)c3)SC2c2ccccc2)cc1` (stereo not given) the TGI (786-0 renal) was > 100 µM, the TGI (A498 renal) was > 100 µM and the TGI (A549 NSCLC) was > 100 µM. The TGI (ACHN renal) was > 100 µM, the TGI (BT-549 breast) was > 100 µM and the TGI (CAKI-1 renal) was > 100 µM. For the same molecule, the TGI (CCRF-CEM leukemia) was 41.1 µM, the TGI (COLO 205 colon) was > 100 µM and the TGI (DU-145 prostate) was > 100 µM. For the same molecule, the TGI (EKVX NSCLC) was > 100 µM, the TGI (HCC-2998 colon) was > 100 µM and the TGI (HCT-116 colon) was 39.6 µM. The TGI (HCT-15 colon) was > 100 µM, the TGI (HL-60(TB) leukemia) was > 100 µM and the TGI (HOP-62 NSCLC) was 56.6 µM. The TGI (HOP-92 NSCLC) was 40.2 µM, the TGI (HS 578T breast) was 66.3 µM and the TGI (K-562 leukemia) was > 100 µM. For the same molecule, the TGI (KM12 colon) was 90.5 µM, the TGI (LOX IMVI melanoma) was 34.3 µM and the TGI (M14 melanoma) was > 100 µM. The TGI (MALME-3M melanoma) was 62.4 µM, the TGI (MCF7 breast) was 65.8 µM and the TGI (MDA-MB-231 breast) was > 100 µM. The TGI (MDA-MB-435) was > 100 µM, the TGI (MDA-N) was 42.3 µM and the TGI (MOLT-4 leukemia) was 68.5 µM. For the same molecule, the TGI (NCI-H226 lung) was > 100 µM, the TGI (NCI-H23 lung) was > 100 µM and the TGI (NCI-H460 lung) was > 100 µM. For the same molecule, the TGI (NCI-H522 lung) was 58.4 µM, the TGI (NCI/ADR-RES ovarian) was > 100 µM and the TGI (OVCAR-3 ovarian) was > 100 µM. For the same molecule, the TGI (OVCAR-4 ovarian) was > 100 µM, the TGI (OVCAR-5 ovarian) was > 100 µM and the TGI (OVCAR-8 ovarian) was 34.8 µM. The TGI (RPMI-8226 leukemia) was 58.3 µM, the TGI (RXF 393 renal) was > 100 µM and the TGI (SF-268 CNS) was > 100 µM. The TGI (SF-295 CNS) was > 100 µM, the TGI (SF-539 CNS) was 33.4 µM and the TGI (SK-MEL-2 melanoma) was > 100 µM. The TGI (SK-MEL-28 melanoma) was 76.1 µM, the TGI (SK-MEL-5 melanoma) was 68.6 µM and the TGI (SK-OV-3 ovarian) was > 100 µM. For the same molecule, the TGI (SN12C renal) was 97 µM, the TGI (SNB-19 CNS) was 48.5 µM and the TGI (SR leukemia) was 56.4 µM. For the same molecule, the TGI (SW-620 colon) was > 100 µM, the TGI (T-47D breast) was > 100 µM and the TGI (TK-10 renal) was > 100 µM. For the same molecule, the TGI (U251 CNS) was 30.4 µM, the TGI (UACC-257 melanoma) was > 100 µM and the TGI (UACC-62 melanoma) was > 100 µM. For the same molecule, the TGI (UO-31 renal) was > 100 µM.
